Experiment [1] concerns HCT116 MTAP-deleted cell lines. In words: Cell viability assay (CellTiter-Glo, 7 days), HCT116 MTAP-deleted. It counts as cell-based. The following applies: Homo sapiens, HCT-116; cell viability assay, HCT116 MTAP-deleted; class symbols; read-out: CC50. In outline: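 Each PRMT5 inhibitor was tested as a dose response alongside tool compounds on the same plate. Incubation ran 7 days at 37 °C under 5% CO2, after which CellTiter-Glo luminescence was recorded and CC50 calculated.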
A general note: Cellular ATP, detected with luciferase, serves as a proxy for viable cell number.

For experiment [2], the system named is Symmetric Di-methyl Arginine (SDMA) signal (PRMT5 inhibition) in HCT116 MTAP-deleted cells. The experiment can be described thus: Symmetric di-methyl arginine image-based high content screen assay (SDMA assay), HCT116 MTAP-deleted. It counts as cell-based. The following applies: for EC50 selectivity: HCT116 WT vs HCT116 MTAP-deleted; for pEC50: Homo sapiens, HCT-116, HCT116 MTAP-deleted, class symbols. A digest of the protocol:
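Read-out is imaging of per-cell mean SDMA immunofluorescence (Alexa 488), with cells segmented by DAPI. Cells, MTAP-deleted or wild-type HCT116, were exposed to compound for 3 days at 37 °C before fixation. EC50 derived by 4-parameter non-linear logistic regression.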

pEC50: −log10 of the molar value.

The term CC50 denotes the concentration that lowers cell viability or growth by half. One may read the pEC50 as −log10 of the EC50, conventionally taken in molar units. A high value points to a small EC50.

As for `CN(C(=O)c1cc2c(cc1F)nc(N)c1cncn12)[C@@H]1COc2cc(-n3cc(C(F)(F)F)cn3)ccc21` [Ff-545, (S)-4-amino-7-fluoro-N-methyl-N-(6-(4-(trifluoromethyl)-1H-pyrazol-1-yl)-2,3-dihydrobenzofuran-3-yl)imidazo[1,5-a]quinoxaline-8-carboxamide], the CC50 in experiment [1] was below 100 nM. In experiment [2], this compound gave an EC50 selectivity of 157 and a negative logarithm of the EC50 (pEC50) of 8.30 to 9.00.
Taken in the same sequence, the figures for `CN(C(=O)c1ccc2nc(N)c3cncn3c2c1)[C@@H]1COc2cc(C3CC3)ccc21` [Ff-548, (S)-4-amino-N-(6-cyclopropyl-2,3-dihydrobenzofuran-3-yl)-N-methylimidazo[1,5-a]quinoxaline-8-carboxamide] were 100 to 1000 nM, 102 and 8.30 to 9.00.
Take `CN(C(=O)c1ccc2nc(N)c3cncn3c2c1)[C@@H]1COc2cc(Cl)ccc21` [Ff-566, (S)-4-amino-N-(6-chloro-2,3-dihydrobenzofuran-3-yl)-N-methylimidazo[1,5-a]quinoxaline-8-carboxamide]: in experiment [1], the CC50 is 100 to 1000 nM. In experiment [2], the EC50 selectivity worked out at 497 and the negative-log EC50 (pEC50) was 8.30 to 9.00.
Taken in the same sequence, the figures for `CN(C(=O)c1cc2c(cc1F)nc(N)c1cncn12)[C@@H]1COc2cc(Cl)ccc21` [Ff-567, (S)-4-amino-N-(6-chloro-2,3-dihydrobenzofuran-3-yl)-7-fluoro-N-methylimidazo[1,5-a]quinoxaline-8-carboxamide] were below 100 nM, 707 and at least 9.00.
The corresponding values for `CN(C(=O)c1cc2c(cc1F)nc(N)c1cncn12)[C@@H]1COc2cc(F)ccc21` [Ff-568, (S)-4-amino-N-(6-fluoro-2,3-dihydrobenzofuran-3-yl)-7-fluoro-N-methylimidazo[1,5-a]quinoxaline-8-carboxamide] are 100 to 1000 nM, 457 and below 8.30.
Taken in the same sequence, the figures for `Nc1nc2ccc(C(=O)N3CCC4(CC4)[C@@H]4Oc5cc(OC(F)(F)F)ccc5[C@@H]43)cc2n2cncc12` [Ff-615, (4-aminoimidazo[1,5-a]quinoxalin-8-yl)((4aS,9bS)-7-(trifluoromethoxy)-2,3,4a,9b-tetrahydro-1H-spiro[benzofuro[3,2-b]pyridine-4,1′-cyclopropan]-1-yl)methanone] were below 100 nM, 158 and at least 9.00.
As for `C[C@@H]1C[C@@H]2Oc3cc(OC(F)(F)F)ccc3[C@@H]2N(C(=O)c2ccc3nc(N)c4cncn4c3c2)C1` [Ff-616, (4-aminoimidazo[1,5-a]quinoxalin-8-yl)((3R,4aS,9bS)-3-methyl-7-(trifluoromethoxy)-3,4,4a,9b-tetrahydrobenzofuro[3,2-b]pyridin-1(2H)-yl)methanone], the CC50 in experiment [1] is below 100 nM. In experiment [2], this compound gave an EC50 selectivity of 162 and a pEC50 of at least 9.00.
Take `Cc1ncn2c1c(N)nc1cnc(C(=O)N3CCC4(CC4)[C@@H]4Oc5cc(OC(F)(F)F)ccc5[C@@H]43)cc12` [Ff-617, (4-amino-3-methylimidazo[1,5-a]pyrido[3,4-e]pyrazin-8-yl)((4aS,9bS)-7-(trifluoromethoxy)-2,3,4a,9b-tetrahydro-1H-spiro[benzofuro[3,2-b]pyridine-4,1′-cyclopropan]-1-yl)methanone]: the 50% cytotoxic concentration (CC50) in experiment [1] is below 100 nM. In experiment [2], the EC50 selectivity is listed as 274 and the negative-log EC50 (pEC50) is 8.30 to 9.00.
Take `Nc1nc2cnc(C(=O)N3CCC4(CC4)[C@@H]4Oc5cc(OC(F)(F)F)ccc5[C@@H]43)cc2n2cncc12` [Ff-618, (4-aminoimidazo[1,5-a]pyrido[3,4-e]pyrazin-8-yl)((4aS,9bS)-7-(trifluoromethoxy)-2,3,4a,9b-tetrahydro-1H-spiro[benzofuro[3,2-b]pyridine-4,1′-cyclopropan]-1-yl)methanone]: the CC50 in experiment [1] was below 100 nM. Further, in experiment [2], the EC50 selectivity came to 294 and the negative-log EC50 (pEC50) is 8.30 to 9.00.
On to `Cc1ncn2c1c(N)nc1cnc(C(=O)N3C[C@H](C)C[C@@H]4Oc5cc(OC(F)(F)F)ccc5[C@@H]43)cc12` [Ff-619, (4-amino-3-methylimidazo[1,5-a]pyrido[3,4-e]pyrazin-8-yl)((3R,4aS,9bS)-3-methyl-7-(trifluoromethoxy)-3,4,4a,9b-tetrahydrobenzofuro[3,2-b]pyridin-1(2H)-yl)methanone], for which the cytotoxic concentration (CC50) in experiment [1] is below 100 nM. Also, in experiment [2], the EC50 selectivity is recorded as 58 and the pEC50 was 8.30 to 9.00.
The corresponding values for `Cc1ncn2c1c(N)nc1cnc(C(=O)N3C[C@H](C)C[C@@H]4Oc5cc(C(F)(F)F)ccc5[C@@H]43)cc12` [Ff-624, (4-amino-3-methylimidazo[1,5-a]pyrido[3,4-e]pyrazin-8-yl)((3R,4aS,9bS)-3-methyl-7-(trifluoromethyl)-3,4,4a,9b-tetrahydrobenzofuro[3,2-b]pyridin-1(2H)-yl)methanone] are 100 to 1000 nM, 27 and below 8.30.
For `Nc1nc2cc(F)c(C(=O)N3CC[C@H]4C[C@@H]3c3ccc(C(F)(F)F)c(F)c3O4)cc2n2cncc12` [Ff-634, (4-amino-7-fluoroimidazo[1,5-a]quinoxalin-8-yl)((2S,6R)-10-fluoro-9-(trifluoromethyl)-3,4-dihydro-2H-2,6-methanobenzo[b][1,5]oxazocin-5(6H)-yl)methanone], in experiment [1], the CC50 was below 100 nM. For the same compound, in experiment [2], the EC50 selectivity is 171 and the negative-log EC50 (pEC50) is at least 9.00.
The corresponding values for `[2H]C1([2H])C[C@H]2C[C@H](c3ccc(C(F)(F)F)cc3O2)N1C(=O)c1cc2c(cc1F)nc(N)c1cncn12` [Ff-637, (4-amino-7-fluoroimidazo[1,5-a]quinoxalin-8-yl)((2S,6R)-9-(trifluoromethyl)-3,4-dihydro-2H-2,6-methanobenzo[b][1,5]oxazocin-5(6H)-yl-4,4-d2)methanone] are below 100 nM, 182 and at least 9.00.
Consider `Cc1ncc2c(N)nc3ccc(C(=O)N4CCC[C@@H]5Oc6cc(OC(F)(F)F)ccc6[C@@H]54)cc3n12` [Ff-640, (4-amino-1-methylimidazo[1,5-a]quinoxalin-8-yl)((4aS,9bS)-7-(trifluoromethoxy)-3,4,4a,9b-tetrahydrobenzofuro[3,2-b]pyridin-1(2H)-yl)methanone], for which, in experiment [1], the CC50 is below 100 nM. In experiment [2], the EC50 selectivity amounted to 415 and the negative logarithm of the EC50 (pEC50) was 8.30 to 9.00.
As to `CN(C(=O)c1ccc2nc(N)c3cncn3c2c1)[C@@H]1COc2cc(C34CC(C(F)F)(C3)C4)ccc21` [Ff-641, (S)-4-amino-N-(6-(3-(difluoromethyl)bicyclo[1.1.1]pentan-1-yl)-2,3-dihydrobenzofuran-3-yl)-N-methylimidazo[1,5-a]quinoxaline-8-carboxamide], the CC50 in experiment [1] was below 100 nM. In experiment [2], this compound gave an EC50 selectivity of 389 and a pEC50 of at least 9.00.
Taken in the same sequence, the figures for `[2H]C1([2H])CC[C@@H]2Oc3cc(C(F)(F)F)ccc3[C@@H]2N1C(=O)c1ccc2nc(N)c3cncn3c2c1` [Ff-643, (4-aminoimidazo[1,5-a]quinoxalin-8-yl)((4aS,9bS)-7-(trifluoromethyl)-3,4,4a,9b-tetrahydrobenzofuro[3,2-b]pyridin-1(2H)-yl-2,2-d2)methanone] were below 100 nM, 155 and at least 9.00.
The corresponding values for `[2H]C1([2H])CC[C@@H]2Oc3cc(C(F)(F)F)ccc3[C@@H]2N1C(=O)c1cc2c(cn1)nc(N)c1c(C)ncn12` [Ff-644, (4-amino-3-methylimidazo[1,5-a]pyrido[3,4-e]pyrazin-8-yl)((4aS,9bS)-7-(trifluoromethyl)-3,4,4a,9b-tetrahydrobenzofuro[3,2-b]pyridin-1(2H)-yl-2,2-d2)methanone] are below 100 nM, 92 and at least 9.00.
On to `Cc1ncn2c1c(N)nc1cnc(C(=O)N3C[C@@H](F)C[C@@H]4Oc5cc(C(F)(F)F)ccc5[C@@H]43)cc12` [Ff-658, (4-amino-3-methylimidazo[1,5-a]pyrido[3,4-e]pyrazin-8-yl)((3S,4aS,9bS)-3-fluoro-7-(trifluoromethyl)-3,4,4a,9b-tetrahydrobenzofuro[3,2-b]pyridin-1(2H)-yl)methanone], for which the CC50 in experiment [1] is below 100 nM. In experiment [2], this compound showed an EC50 selectivity of 124 and a pEC50 of 8.30 to 9.00.
The corresponding values for `Cc1ncc2c(N)nc3ccc(C(=O)N4C[C@@H](F)C[C@@H]5Oc6cc(C(F)(F)F)ccc6[C@@H]54)cc3n12` [Ff-660, (4-amino-1-methylimidazo[1,5-a]quinoxalin-8-yl)((3S,4aS,9bS)-3-fluoro-7-(trifluoromethyl)-3,4,4a,9b-tetrahydrobenzofuro[3,2-b]pyridin-1(2H)-yl)methanone] are below 100 nM, 122 and at least 9.00.
Taken in the same sequence, the figures for `Nc1nc2cc(F)c(C(=O)N3CCC[C@@H]4Oc5cc(-c6cnn(C(F)F)c6)ccc5[C@@H]43)cc2n2cncc12` [Ff-661, (4-amino-7-fluoroimidazo[1,5-a]quinoxalin-8-yl)((4aS,9bS)-7-(1-(difluoromethyl)-1H-pyrazol-4-yl)-3,4,4a,9b-tetrahydrobenzofuro[3,2-b]pyridin-1(2H)-yl)methanone] were below 100 nM, 147 and at least 9.00.

Source of the values: patent US12448388B2, “PRMT5 inhibitors and uses thereof” (Gilead Sciences, Inc., priority 2023, dated 2025).
